This is an account of results in patent publication US11564920B2, “5-heteroaryl-1H-pyrazol-3-amine derivative” (Sumitomo Pharma Co., Ltd., priority 2020, dated 2023).

One assay deals with ES-2 cells. In words: Cell growth suppression experiment. In kind it is cell-based. Conditions: for IC50: Homo sapiens, 48 h, cultured for 2 days, read-out: IC50 (cell growth suppression, ranking); for cell growth suppression effect (in words): compared with prexasertib. Here is the method:
ES-2 cells were obtained from the American Type Culture Collection (ATCC). These cells were cultured at 37° C. in the presence of 5% CO2 in a 10% fetal bovine serum, […] penicillin/streptomycin containing McCoy's 5a medium.
500 cells were seeded for each well in a 384-well plate, and the evaluated compound was added so that the final concentration of DMSO would be 0.1% to culture the cells for 2 days. After completion of the culture, the cell viability rate was calculated using CellTiter-Glo® 3D Reagent (Promega, G968B).

Another assay concerns the target CHK1 (Homo sapiens (Human), UniProt O14757). In words: CHK1 inhibitory activity test (IMAP TR-FRET). In kind it is biochemical. The conditions noted are these: for effect of suppressing CHK1 activity (in words): compared with prexasertib; for inhibition at 0.0001 µM: read-out: CHK1 inhibition % at 0.1 nM. Here is the method:
IMAP TR-FRET Screening Express Kit (R8160) was obtained from Molecular Devices. […] FAM-PKAtide (R7255, Molecular Devices) and FAM-Phospho-PKAtide (R7304, Molecular Devices) were admixed after dilution, and calibration standard systems for phosphorylation levels from 0 to 100% were created. 5 μL of a compound dissolved in a 0.4% DMSO solution was added to a 384 well plate. A compound study group to which 5 μL of each of CHK1, CHK1tide, and ATP was added, and a standard group to which 20 μL of standard was added were created, and subjected to a kinase reaction for 3 hours at 30° C. Subsequently, 60 μL of Binding Reagent (80% Buffer A, 20% Buffer B, 1:600 Binding Reagent, 1:400 Tb-Donor) was added for a binding reaction for 2 hours at room temperature.
(In general: In TR-FRET formats the signal depends on donor and acceptor labels being close together.)

Sequence of CHK1 (O14757 whole entry): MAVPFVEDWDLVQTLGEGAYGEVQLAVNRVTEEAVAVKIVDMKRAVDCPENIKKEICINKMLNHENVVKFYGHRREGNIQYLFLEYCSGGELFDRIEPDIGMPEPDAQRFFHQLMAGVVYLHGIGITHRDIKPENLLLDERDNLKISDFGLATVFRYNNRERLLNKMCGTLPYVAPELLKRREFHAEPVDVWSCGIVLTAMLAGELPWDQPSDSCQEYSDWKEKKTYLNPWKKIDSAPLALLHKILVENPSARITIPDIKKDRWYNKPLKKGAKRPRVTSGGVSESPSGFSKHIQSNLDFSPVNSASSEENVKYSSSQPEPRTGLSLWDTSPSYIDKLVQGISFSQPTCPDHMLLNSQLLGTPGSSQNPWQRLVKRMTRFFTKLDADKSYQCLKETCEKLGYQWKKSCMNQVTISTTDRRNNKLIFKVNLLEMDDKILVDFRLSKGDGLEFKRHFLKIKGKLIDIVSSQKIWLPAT

In general, IC50 refers to the concentration that gives 50% inhibition. As usually defined, the inhibition is the change of the read-out against control, counted positive when it falls. With `COc1cc(Cl)nc(OCCCN)c1-c1cc(Nc2cnc(C#N)cn2)n[nH]1` [Example 2, 5-({5-[2-(3-aminopropoxy)-6-chloro-4-methoxypyridin-3-yl]-1H-pyrazol-3-yl}amino)pyrazine-2-carbonitrile], the IC50 in the assay on ES-2 cells is 30 to 100 nM. Also, at CHK1, the “effect of suppressing CHK1 activity (in words)” value is given as “more potent effect of suppressing CHK1 activity than prexasertib” and the inhibition at 0.0001 µM came to 31%.
On to `COc1cncc(OCCCN)c1-c1cc(Nc2cnc(C#N)cn2)n[nH]1` [Example 3, 5-({5-[3-(3-aminopropoxy)-5-methoxypyridin-4-yl]-1H-pyrazol-3-yl}amino)pyrazine-2-carbonitrile], for which, in the assay with ES-2 cells, the IC50 was less than 30 nM and the “cell growth suppression effect (in words)” value is on record as “excellent cell growth suppression effect that is equivalent to that of prexasertib”. In addition, on CHK1, the “effect of suppressing CHK1 activity (in words)” value is given as “more potent effect of suppressing CHK1 activity than prexasertib” and the inhibition at 0.0001 µM came to 28%.
As for `COc1nccc(OCCCN)c1-c1cc(Nc2cnc(C#N)cn2)n[nH]1` [Example 4, 5-({5-[4-(3-aminopropoxy)-2-methoxypyridin-3-yl]-1H-pyrazol-3-yl}amino)pyrazine-2-carbonitrile], in the assay with ES-2 cells, the IC50 is less than 30 nM and the “cell growth suppression effect (in words)” value is “excellent cell growth suppression effect that is equivalent to that of prexasertib”. Also, at CHK1, the “effect of suppressing CHK1 activity (in words)” value is “more potent effect of suppressing CHK1 activity than prexasertib” and the inhibition at 0.0001 µM came to 25%.
For the molecule `COc1cncc(OCC2(F)CNC2)c1-c1cc(Nc2cnc(C#N)cn2)n[nH]1` [Example 5, 5-[(5-{3-[(3-fluoroazetidin-3-yl)methoxy]-5-methoxypyridin-4-yl}-1H-pyrazol-3-yl)amino]pyrazine-2-carbonitrile], the IC50 in the assay with ES-2 cells is less than 30 nM. In addition, at CHK1, the inhibition at 0.0001 µM is 15%.
Consider `COc1nccc(OCC2(C)CNC2)c1-c1cc(Nc2cnc(C#N)cn2)n[nH]1` [Example 6, 5-[(5-{2-methoxy-4-[(3-methylazetidin-3-yl)methoxy]pyridin-3-yl}-1H-pyrazol-3-yl)amino]pyrazine-2-carbonitrile], for which, in the assay on ES-2 cells, the 50% inhibitory concentration (IC50) was less than 30 nM and the “cell growth suppression effect (in words)” value is recorded as “excellent cell growth suppression effect that is equivalent to that of prexasertib”. Besides, on CHK1, the “effect of suppressing CHK1 activity (in words)” value is “more potent effect of suppressing CHK1 activity than prexasertib” and the inhibition at 0.0001 µM was 15%.
`COc1nccc(OCC2(O)CNC2)c1-c1cc(Nc2cnc(C#N)cn2)n[nH]1` [Example 7, 5-[(5-{4-[(3-hydroxyazetidin-3-yl)methoxy]-2-methoxypyridin-3-yl}-1H-pyrazol-3-yl)amino]pyrazine-2-carbonitrile]: the IC50 in the assay on ES-2 cells lay in the range of 30 to 100 nM. Also, on CHK1, the “effect of suppressing CHK1 activity (in words)” value is “more potent effect of suppressing CHK1 activity than prexasertib” and the inhibition at 0.0001 µM stood at 29%.
As to `COc1cncc(OCC[C@@H](C)N)c1-c1cc(Nc2cnc(C#N)cn2)n[nH]1` [Example 9, 5-[(5-{3-[(3R)-3-aminobutoxy]-5-methoxypyridin-4-yl}-1H-pyrazol-3-yl)amino]pyrazine-2-carbonitrile], the IC50 in the assay with ES-2 cells was in the range of 30 to 100 nM. Moreover, at CHK1, the “effect of suppressing CHK1 activity (in words)” value was “more potent effect of suppressing CHK1 activity than prexasertib” and the inhibition at 0.0001 µM amounted to 24%.
Regarding `COc1cncc(OCC[C@H](C)N)c1-c1cc(Nc2cnc(C#N)cn2)n[nH]1` [Example 10, 5-[(5-{3-[(3S)-3-aminobutoxy]-5-methoxypyridin-4-yl}-1H-pyrazol-3-yl)amino]pyrazine-2-carbonitrile], the 50% inhibitory concentration (IC50) with ES-2 cells lay within 30 to 100 nM. Moreover, on CHK1, the “effect of suppressing CHK1 activity (in words)” value is on record as “more potent effect of suppressing CHK1 activity than prexasertib” and the inhibition at 0.0001 µM worked out at 20%.
As to `COc1cncc(OCC2(CN)CC2)c1-c1cc(Nc2cnc(C#N)cn2)n[nH]1` [Example 11, 5-{[5-(3-{[1-(aminomethyl)cyclopropyl]methoxy}-5-methoxypyridin-4-yl)-1H-pyrazol-3-yl]amino}pyrazine-2-carbonitrile], in the assay on ES-2 cells, the IC50 is less than 30 nM and the “cell growth suppression effect (in words)” value is given as “excellent cell growth suppression effect that is equivalent to that of prexasertib”. Besides, at CHK1, the “effect of suppressing CHK1 activity (in words)” value is “more potent effect of suppressing CHK1 activity than prexasertib” and the inhibition at 0.0001 µM was 35%.
On to `COc1cncc(OC[C@@H](O)CN)c1-c1cc(Nc2cnc(C#N)cn2)n[nH]1` [Example 14, 5-[(5-{3-[(2S)-3-amino-2-hydroxypropoxy]-5-methoxypyridin-4-yl}-1H-pyrazol-3-yl)amino]pyrazine-2-carbonitrile], for which, in the assay with ES-2 cells, the half-maximal inhibitory concentration (IC50) lay in the range of 300 to 1000 nM. For the same molecule, on CHK1, the “effect of suppressing CHK1 activity (in words)” value is “more potent effect of suppressing CHK1 activity than prexasertib” and the inhibition at 0.0001 µM worked out at 30%.
Consider `COc1ccnc(OCCCN)c1-c1cc(Nc2cnc(Cl)cn2)n[nH]1` [Example 15, N-{5-[2-(3-aminopropoxy)-4-methoxypyridin-3-yl]-1H-pyrazol-3-yl}-5-chloropyrazin-2-amine], for which, in the assay on ES-2 cells, the half-inhibitory concentration (IC50) was less than 30 nM and the “cell growth suppression effect (in words)” value was “excellent cell growth suppression effect that is equivalent to that of prexasertib”. Further, on CHK1, the “effect of suppressing CHK1 activity (in words)” value is “more potent effect of suppressing CHK1 activity than prexasertib” and the inhibition at 0.0001 µM was 29%.
With `COc1ncnc(OCCCN)c1-c1cc(Nc2cnc(C#N)cn2)n[nH]1` [Example 17, 5-({5-[4-(3-aminopropoxy)-6-methoxypyrimidin-5-yl]-1H-pyrazol-3-yl}amino)pyrazine-2-carbonitrile], in the assay on ES-2 cells, the IC50 was less than 30 nM and the “cell growth suppression effect (in words)” value is on record as “excellent cell growth suppression effect that is equivalent to that of prexasertib”. Moreover, at CHK1, the IC50 came out at 0.3 nM, the “effect of suppressing CHK1 activity (in words)” value is “more potent effect of suppressing CHK1 activity than prexasertib” and the inhibition at 0.0001 µM was 24%.
In the case of `COc1cncc(OCC2CNC2)c1-c1cc(Nc2cnc(C#N)cn2)n[nH]1` [Example 18, 5-({5-[3-(azetidin-3-yl)methoxy-5-methoxypyridin-4-yl]-1H-pyrazol-3-yl}amino)pyrazine-2-carbonitrile], the half-maximal inhibitory concentration (IC50) in the assay on ES-2 cells lay in the range of 30 to 100 nM. On CHK1, the “effect of suppressing CHK1 activity (in words)” value is “more potent effect of suppressing CHK1 activity than prexasertib” and the inhibition at 0.0001 µM is less than 5%.
For the molecule `COc1cncc(O[C@@H]2CCC[C@H](N)C2)c1-c1cc(Nc2cnc(C#N)cn2)n[nH]1` [Example 19, 5-{[5-(3-{[(1R,3S)-3-aminocyclohexyl]oxy}-5-methoxypyridin-4-yl)-1H-pyrazol-3-yl]amino}pyrazine-2-carbonitrile], in the assay with ES-2 cells, the IC50 was less than 30 nM and the “cell growth suppression effect (in words)” value is reported as “excellent cell growth suppression effect that is equivalent to that of prexasertib”. Moreover, on CHK1, the “effect of suppressing CHK1 activity (in words)” value is “more potent effect of suppressing CHK1 activity than prexasertib” and the inhibition at 0.0001 µM stood at 20%.
`COc1cncc(OC[C@H]2CCNC2)c1-c1cc(Nc2cnc(C#N)cn2)n[nH]1` [Example 21, (S)-5-[(5-{3-methoxy-[5-(pyrrolidin-3-yl)methoxy]pyridin-4-yl}-1H-pyrazol-3-yl)amino]pyrazine-2-carbonitrile]: in the assay on ES-2 cells, the IC50 was less than 30 nM and the “cell growth suppression effect (in words)” value is reported as “excellent cell growth suppression effect that is equivalent to that of prexasertib”. Moreover, at CHK1, the “effect of suppressing CHK1 activity (in words)” value was “more potent effect of suppressing CHK1 activity than prexasertib” and the inhibition at 0.0001 µM is 15%.
With `COc1ncnc(OCC2(CN)CC2)c1-c1cc(Nc2cnc(C#N)cn2)n[nH]1` [Example 23, 5-{[5-(4-{[1-(aminomethyl)cyclopropyl]methoxy}-6-methoxypyrimidin-yl)-1H-pyrazol-3-yl]amino}pyrazine-2-carbonitrile], in the assay with ES-2 cells, the IC50 was less than 30 nM. The inhibition at 0.0001 µM at CHK1 is less than 5%.
On to `N#Cc1cnc(Nc2cc(-c3c(OCF)cncc3OCCCN)[nH]n2)cn1` [Example 24, 5-({5-[3-(3-aminopropoxy)-5-(fluoromethoxy)pyridin-4-yl]-1H-pyrazol-3-yl}amino)pyrazine-2-carbonitrile], for which the IC50 in the assay with ES-2 cells was in the range of 300 to 1000 nM. Also, on CHK1, the “effect of suppressing CHK1 activity (in words)” value is “more potent effect of suppressing CHK1 activity than prexasertib” and the inhibition at 0.0001 µM turned out to be 23%.
As for `COc1cncc(OCC2(C)CNC2)c1-c1cc(Nc2cnc(C#N)cn2)n[nH]1` [Example 25, 5-[(5-{3-methoxy-5-[(3-methylazetidin-3-yl)methoxy]pyridin-4-yl}-1H-pyrazol-3-yl)amino]pyrazine-2-carbonitrile], in the assay with ES-2 cells, the concentration for half-maximal inhibition (IC50) is less than 30 nM and the “cell growth suppression effect (in words)” value is reported as “excellent cell growth suppression effect that is equivalent to that of prexasertib”. Moreover, on CHK1, the inhibition at 0.0001 µM was less than 5%.
On to `COc1cncc(O[C@@H]2CC[C@@H](N)C2)c1-c1cc(Nc2cnc(C#N)cn2)n[nH]1` [Example 32, 5-{[5-(3-{[(1R,3R)-3-aminocyclopentyl]oxy}-5-methoxypyridin-4-yl)-1H-pyrazol-3-yl]amino}pyrazine-2-carbonitrile], for which, in the assay on ES-2 cells, the half-inhibitory concentration (IC50) is less than 30 nM and the “cell growth suppression effect (in words)” value was “excellent cell growth suppression effect that is equivalent to that of prexasertib”.
